Assay results from publication PMC7648750, “In vitro and in vivo BNCT investigations using a carborane containing sulfonamide targeting CAIX epitopes on malignant pleural mesothelioma and breast cancer cells” (Scientific Reports, 2020).

What was measured:
AB22 cells = experiment: MTT cell vitality assay; assay type: cell-based, mouse; conditions: normoxia
Procedure: (§1) The MTT assay is based on the reduction in the mitochondria of metabolically active cells by succinate dehydrogenase obtaining a precipitation of purple formazan crystal. The assay was carried out using the same protocol reported by Azzi et al[42]. Briefly, AB22, ZL34 and MCF7 cells were seeded at a density of 7 × 10^3, 5 × 10^3 and 1 × 10^4 cells per well, respectively, in a 96-well microtiter plate. After 24 h at 37 °C and 5% CO2, they were incubated with increasing concentration of CA-SF or AZ for 24 h in a condition of normoxia at 37 °C and 5% CO2 by adding stock solutions in dimethyl sulfoxide (DMSO). In all the conditions the concentration of DMSO during the cell incubation was maintained under 0.25% (v/v) in cell medium. After the incubation, the medium was removed and each well was incubated with thiazolyl blue tetrazolium bromide (Sigma) dissolved in the medium at a concentration of 0.45 mg/mL for 4 h at 37 °C and 5% CO2. Then, after medium elimination, 150 µL of DMSO were added into each well to solubilise the formazan salt crystals produced by the metabolism of live cells and the microplate was incubated at room temperature (RT) for 30 min. Finally, absorbance was measured at 570 nm using an iMark microplate reader (Biorad). Cell vitality was reported as the percentage of […] cells observed in the treated samples relative to that observed in the non-treated control cells.

AB22 mesothelioma tumour = experiment: Tumour growth by MRI in AB22 mesothelioma tumour bearing mice (CA-SF with or without BNCT); assay type: in vivo, Balb/c mice; conditions: three i.v. doses 37.5 mg/kg of boron at day 0, 2, 6, followed 25 days
Procedure: CA-SF treatment on mesothelioma bearing mice, were performed in the thermal column of the TRIGA Mark II reactor at Pavia University (Italy) using the same protocol reported in reference^35. The irradiation facility was previously designed for TAOrMINA treatment developed to treat multiple liver metastases with BNCT. The chamber used to perform animal irradiation has a cross section of 40 × 20 cm^2, a length of 1 m and it starts at about 1.3 m from the center of the reactor core. The animal irradiation position has been characterised in terms of neutron spectrum and background photon dose[43]. […]
The T2-weighted MR images were acquired at 1 T with an Aspect M2-High Performance MRI System (Aspect Magnet Technologies Ltd., Netanya, Israel) consisting of a NdFeB magnet, equipped with a 35 mm solenoid Tx/Tr coil of inner diameter 35 mm. […] The tumour volume (mm^3) was calculated in the region of interest (ROI) manually drawn on the whole tumour by ITK-SNAP software. Tumour volume enhancement (%) was calculated according to the following equation: ((tumour volume (time = n) – tumour volume (time = 0)/tumour volume (time = 0)) × 100, where time = 0 indicates the day of the first CA-SF treatment and time = n indicates the days when mice were acquired by MRI.

ZL34 cells = experiment: MTT cell vitality assay; assay type: cell-based, human; conditions: normoxia
Procedure: as §1

MCF7 cells = experiment: MTT cell vitality assay; assay type: cell-based, human; conditions: normoxia
Procedure: as §1

Substance: 1-Sulfonamidomethyl-o-carborane [CA-SF]
- cell vitality measured by MTT (AB22 cells; AB22, 130 µM CA-SF, 24 h, 37 °C): about 80%
- percentage of viable cells with increasing concentration (MTT) (AB22 cells; AB22, 24 h, Fig. 3): steadily decreases
- tumour growth (MRI tumour volume) vs vehicle control mice (AB22 mesothelioma tumour; CA-SF alone, not irradiated): significantly inhibits mice tumour growth
- tumour growth (MRI tumour volume), CA-SF + BNCT (AB22 mesothelioma tumour; neutron irradiation day 3, 15 min, 250 kW): dramatic reduction of the mass of tumours
- cell vitality measured by MTT (ZL34 cells; ZL34, 187.5 µM CA-SF, 24 h, 37 °C): about 80%
- percentage of viable cells with increasing concentration (MTT) (ZL34 cells; ZL34, 24 h, Fig. 3): steadily decreases
- cell vitality measured by MTT (MCF7 cells; MCF7, 72 µM CA-SF, 24 h, 37 °C): about 80%
- percentage of viable cells with increasing concentration (MTT) (MCF7 cells; MCF7, 24 h, Fig. 3): steadily decreases
